Each structure is given as a SMILES string.

The subject of this assay is Human platelet aggregation caused by ADP. The experiment in a line: Inhibition of ADP-induced platelet aggregation (Mimic-human PRP). In kind it is cell-based. The conditions noted are these: 20 μM ADP, human platelet concentrate diluted with PPP, absorption at 595 nm. On the procedure: Platelet Preparation for Aggregation Studies
Human platelet aggregation reaction test is a functional experiment method to verify whether a test compound is an agonist or an antagonist to ADP receptor. […] The platelet product isolated from whole blood was purchased from Chung-Nam blood center (Dae-joen, South Korea). The platelet was isolated from 400 mL of whole blood containing 56 mL of CPDA-1 anticoagulant. To isolate the platelet product, 400 mL of whole blood was centrifuged at 260×g for 5 minutes, and then obtained PRP (platelet rich plasma) was secondary centrifuged at 370×g for 6 minutes. Platelet pellet (10^9/mL) was suspended with 45 mL of plasma and then agitated over 1 hour at 22° C. blood reservoir to stabilize it. The stabilized platelet product was used in the experiment within 24 hours. PCs (Platelet Concentrates) were gently transferred to a new 50 ml-falcon tube. The number of platelet was counted by using animal blood counter (ABC Vet, ABX diagnostics, France). The volume of 30 mL of PCs collected from same donor was centrifuged at 1500 g for 10 min at room temperature to prepare platelet-poor plasma (PPP). The platelet count was adjusted to platelet number of 3˜4×10^8/mL by diluting with PPP.
Evaluation on Inhibitory Effect of ADP-Induced Aggregation
Inhibition of ADP-induced aggregation was determined in 96-well flat-bottom plates (Costar, USA) at room temperature. The diluted platelet was aliquoted into each well of 96 well plate in the volume of 188 μl. […] The platelet including test compounds was immediately mixed on a shaker at 1050 rpm for 1 min and incubated at room temperature for 20 min. Then, 10 μL volume of 400 μM ADP was added: the final concentration of 20 μM ADP in the total reaction volume of 0.2 mL/well. After shaking of the plate at room temperature for 3 min, the absorption of the samples was determined at 595 nm using a microtiter plate reader (Softmax, Molecular Devices).
A dose-dependent curve on serial dilutions of ADP was accomplished by adding vehicle (DMSO) instead of antagonists in order to calculate EC50 of ADP. Inhibition of aggregation was calculated from the increase of absorption at 595 nm at 3 min of the reaction incubation, compared to results of absorption between the 0 and 20 μM ADP control without antagonists. Sigmoidal dose-response curves and Ki were derived by non-linear regression analysis using the Prism software (GraphPad, San Diego Calif.).

As usually defined, the Ki is a dissociation constant, usually derived from enzyme kinetics or from competition with a known ligand. Higher therefore signals weaker binding. `CCCc1cc2c(N3CCn4c(nnc4C(F)(F)F)C3)nc(N3CC[C@H](C(=O)N(C)C)C3)nc2s1` [Example 1-88, (S)-1-[6-Propyl-4-(3-trifluoromethyl-5,6-dihydro-8H-[1,2,4]triazolo[4,3-a]pyrazin-7-yl)-thieno[2,3-d]pyrimidin-2-yl]-pyrrolidine-3-carboxylic acid dimethylamide] registered a Ki of 0.016 µM.

As to `CCCc1cc2c(N3CCn4c(nnc4C(F)(F)F)C3)nc(N3CCCC(C(N)=O)C3)nc2s1` (stereo not shown) [Example 1-92, 1-[6-Propyl-4-(3-trifluoromethyl-5,6-dihydro-8H-[1,2,4]triazolo[4,3-a]pyrazin-7-yl)-thieno[2,3-d]pyrimidin-2-yl]-piperidine-3-carboxylic acid amide], the Ki was found to be 0.03 µM.

For the compound `CCCc1cc2c(N3CCn4c(nnc4C(F)(F)F)C3)nc(N3CCCC(C(=O)NC)C3)nc2s1` (stereo not shown) [Example 1-93, 1-[6-Propyl-4-(3-trifluoromethyl-5,6-dihydro-8H-[1,2,4]triazolo[4,3-a]pyrazin-7-yl)-thieno[2,3-d]pyrimidin-2-yl]-piperidine-3-carboxylic acid methylamide], the Ki came out at 0.204 µM.

Turning to `CCCc1cc2c(N3CCn4c(nnc4C(F)(F)F)C3)nc(N3CCCC(C(=O)N(C)C)C3)nc2s1` (stereo not shown) [Example 1-94, 1-[6-Propyl-4-(3-trifluoromethyl-5,6-dihydro-8H-[1,2,4]triazolo[4,3-a]pyrazin-7-yl)-thieno[2,3-d]pyrimidin-2-yl]-piperidine-3-carboxylic acid dimethylamide], the inhibition constant Ki is 0.029 µM.

`CCCc1cc2c(N3CCn4c(nnc4C(F)(F)F)C3)nc(N3CCCC(C(=O)NO)C3)nc2s1` (stereo not shown) [Example 1-95, 1-[6-Propyl-4-(3-trifluoromethyl-5,6-dihydro-8H-[1,2,4]triazolo[4,3-a]pyrazin-7-yl)-thieno[2,3-d]pyrimidin-2-yl]-piperidine-3-carboxylic acid hydroxyamide] had an inhibition constant Ki of 0.011 µM.

`CCCc1cc2c(N3CCn4c(nnc4C(F)(F)F)C3)nc(N3CC[C@H](NC(=O)CO)C3)nc2s1` [Example 1-100, 2-Hydroxy-N-{(S)-1-[6-propyl-4-(3-trifluoromethyl-5,6-dihydro-8H-[1,2,4]triazolo[4,3-a]pyrazin-7-yl)-thieno[2,3-d]pyrimidin-2-yl]-pyrrolidin-3-yl}-acetamide] showed an inhibition constant (Ki) of 0.006 µM.

`CCCc1cc2c(N3CCn4c(nnc4C(F)(F)F)C3)nc(N3CC[C@H](NC(=O)CN)C3)nc2s1` [Example 1-101, 2-Amino-N-{(S)-1-[6-propyl-4-(3-trifluoromethyl-5,6-dihydro-8H-[1,2,4]triazolo[4,3-a]pyrazin-7-yl)-thieno[2,3-d]pyrimidin-2-yl]-pyrrolidin-3-yl}-acetamide] gave an inhibition constant (Ki) of 0.0035 µM.

Compound `CCCc1cc2c(N3CCn4c(nnc4C(F)(F)F)C3)nc(N3CC[C@H](NC(=O)COC)C3)nc2s1` [Example 1-102, 2-Methoxy-N-{(S)-1-[6-propyl-4-(3-trifluoromethyl-5,6-dihydro-8H-[1,2,4]triazolo[4,3-a]pyrazin-7-yl)-thieno[2,3-d]pyrimidin-2-yl]-pyrrolidin-3-yl}-acetamide] registered a Ki of 0.0086 µM.

With `CCCc1cc2c(N3CCn4c(nnc4C(F)(F)F)C3)nc(N3CC[C@H](NC(C)=O)C3)nc2s1` [Example 1-105, N-{(S)-1-[6-Propyl-4-(3-trifluoromethyl-5,6-dihydro-8H-[1,2,4]triazolo[4,3-a]pyrazin-7-yl)-thieno[2,3-d]pyrimidin-2-yl]-pyrrolidin-3-yl}-acetamide], the inhibitory constant (Ki) is 0.0044 µM.

In turn, `CCCc1cc2c(N3CCn4c(nnc4C(F)(F)F)C3)nc(N3CC[C@H](NC(=O)C(F)(F)F)C3)nc2s1` [Example 1-106, 2,2,2-Trifluoro-N-{(S)-1-[6-propyl-4-(3-trifluoromethyl-5,6-dihydro-8H-[1,2,4]triazolo[4,3-a]pyrazin-7-yl)-thieno[2,3-d]pyrimidin-2-yl]-pyrrolidin-3-yl}-acetamide] had a Ki of 0.016 µM.
